For the test, the target named is T1, Protein mono-ADP-ribosyltransferase TIPARP (Homo sapiens, UniProt Q7Z3E1).
T1 sequence (Q7Z3E1 whole entry): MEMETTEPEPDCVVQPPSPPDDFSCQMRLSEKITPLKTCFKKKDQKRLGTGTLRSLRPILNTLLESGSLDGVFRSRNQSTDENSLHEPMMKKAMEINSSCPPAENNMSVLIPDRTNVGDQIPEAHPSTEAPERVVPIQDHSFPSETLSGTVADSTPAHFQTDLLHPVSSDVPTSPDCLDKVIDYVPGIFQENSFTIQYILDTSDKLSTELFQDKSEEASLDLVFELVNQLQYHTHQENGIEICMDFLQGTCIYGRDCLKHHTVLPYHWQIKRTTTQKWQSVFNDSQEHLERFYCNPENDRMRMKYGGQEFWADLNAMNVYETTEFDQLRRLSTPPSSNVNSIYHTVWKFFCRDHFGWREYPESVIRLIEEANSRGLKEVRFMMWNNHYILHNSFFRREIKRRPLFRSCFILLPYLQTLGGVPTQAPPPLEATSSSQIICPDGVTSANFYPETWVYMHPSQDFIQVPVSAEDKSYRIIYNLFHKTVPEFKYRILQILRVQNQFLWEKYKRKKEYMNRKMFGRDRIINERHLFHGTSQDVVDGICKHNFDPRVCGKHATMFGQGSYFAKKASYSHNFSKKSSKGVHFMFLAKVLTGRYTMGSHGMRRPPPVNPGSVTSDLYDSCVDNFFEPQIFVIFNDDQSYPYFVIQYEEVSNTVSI
The experiment in a line: Enzymatic Assay: Displacement of Probe A, a biotinylated probe binding to the TIPARP active site, was measured using a time-resolved fluorescence energy transfer (TR-FRET) assay. 20 nL of a dose response curve of each test compound was spotted in black 384-well polystyrene proxiplates (Perkin Elmer) using a Mosquito (TTP Labtech). Reactions were performed in a 8 μl volume by adding 6 μL of TIPARP and Probe A in assay buffer (20 mM HEPES pH=8, 100 mM NaCl, 0.1% bovine serum albumin, 2 mM DTT and 0.002% Tween20), incubating with test compound at 25° C. for 30 min, then adding 2 μL of ULight-anti 6×His and LANCE Eu-W1024 labeled streptavidin (Perkin Elmer). The final concentrations of TIPARP and Probe A were 6 nM and 2 nM, respectively. The final concentration of ULight-anti 6×His and LANCE Eu-W1024 labeled streptavidin were 4 nM and 0.25 nM, respectively. Reactions were incubated at 25° C. for an additional 30 min, then read on an Envision platereader equipped with a LANCE/DELFIA top mirror (Perkin Elmer) using excitation of 320 nm and emission of 615 nm and 665 nM with a […]. The ratio of the 665/615 nm emission were calculated for each well to determine the amount of complex of TIPARP and Probe Ain each well. […].

Regarding `C[C@@H](CO[C@@H]1CCN(C2CCN(c3ncc(Br)cn3)CC2)C1=O)Nc1cn[nH]c(=O)c1C(F)(F)F`, the IC50 (in general, the concentration that gives 50% inhibition) was less than 100 nM.
